Laboratory results taken from US20070203118A1, “SUBSTITUTED TETRAHYDROISOQUINOLINES USED IN THE FORM OF MMP INHIBITORS, METHOD FOR THE PRODUCTION AND USE THEREOF IN THE FORM OF DRUGS” (SANOFI-AVENTIS DEUTSCHLAND GMBH, priority 2004, published 2007).

How the values were obtained:
[1] = target: T1, catalytic domain of human collagenase-3 (MMP-13) (Homo sapiens, UniProt P45452); assay: Enzymatic activity of the catalytic domain of human collagenase-3 (MMP-13), fluorogenic substrate; format: biochemical
T1 construct: Determination of the Enzymatic Activity of the Catalytic Domain of Human Collagenase-3 (MMP-13); purchased INVITEK, Berlin
Experimental: Determination of the Enzymatic Activity of the Catalytic Domain of Human Collagenase-3 (MMP-13)
(§1) Activation of the proenzyme: 2 parts by volume of proenzyme were incubated with 1 part by volume of APMA solution at 37° C. for 1.5 hours. The APMA solution was prepared from a 10 mmol/l p-aminophenylmercuric acetate solution in 0.1 mmol/l NaOH by dilution with 3 parts by volume of Tris/HCl buffer pH 7.5 (see below). The pH was adjusted to between 7.0 and 7.5 by adding 1 mmol/l HCl. After activation of the enzyme it was diluted with the Tris/HCl buffer to a concentration of 1.67 μg/ml.
(§2) The enzymic activity was measured by incubating 10 μl of enzyme solution with 10 μl of a 3% strength (v/v) buffered dimethyl sulfoxide solution (reaction 1) for 15 minutes. The enzyme inhibitor activity was measured by incubating 10 μl of enzyme solution with 10 μl of a 3% strength (v/v) buffered dimethyl sulfoxide solution which contained the enzyme inhibitor (reaction 2).
The enzymic reaction both in the case of reaction 1 and in the case of reaction 2 was followed after addition of 10 μl of a 3% strength (v/v) aqueous dimethyl sulfoxide solution which contained 0.075 mmol/l of the substrate by fluorescence spectroscopy (328 nm (extinction)/393 nm (emission)).
The enzymic activity has been presented as increase in extinction/minute. The effect of the inhibitor was calculated as percentage inhibition by the following formula: % inhibition=100−[(increase in extinction/minute in reaction 2)/(increase in extinction/minute in reaction 1)×100].
(§3) The IC50, which is the concentration of inhibitor which is necessary for 50% inhibition of the enzymic activity, was determined graphically by plotting the percentage inhibitions at various inhibitor concentrations.
(§4) The buffer solution contained 0.05% Brij (Sigma, Deisenhofen, Germany) and 0.1 mol/l Tris/HCl, 0.1 mol/l NaCl, 0.01 mol/l CaCl2 (pH=7.5). The enzyme solution contained 1.67 μg/ml of the enzyme domain. The substrate solution contained 0.075 mmol/l of the fluorogenic substrate (7-methoxycoumarin-4-yl)acetyl-Pro-Leu-Gly-Leu-3-(2′,4′-dinitrophenyl)-L-2,3-diaminopropionyl-Ala-Arg-NH2 (Bachem, Heidelberg, Germany).

[2] = target: T2, catalytic domain of human gelatinase-A (MMP-2) (Homo sapiens, UniProt P08253); assay: Enzymatic activity of the catalytic domain of human gelatinase-A (MMP-2), fluorogenic substrate; format: biochemical
T2 construct: Determination of the Enzymatic Activity of the Catalytic Domain of Human Gelatinase-A (MMP-2); purchased INVITEK, Berlin
T2 sequence (P08253 110-660): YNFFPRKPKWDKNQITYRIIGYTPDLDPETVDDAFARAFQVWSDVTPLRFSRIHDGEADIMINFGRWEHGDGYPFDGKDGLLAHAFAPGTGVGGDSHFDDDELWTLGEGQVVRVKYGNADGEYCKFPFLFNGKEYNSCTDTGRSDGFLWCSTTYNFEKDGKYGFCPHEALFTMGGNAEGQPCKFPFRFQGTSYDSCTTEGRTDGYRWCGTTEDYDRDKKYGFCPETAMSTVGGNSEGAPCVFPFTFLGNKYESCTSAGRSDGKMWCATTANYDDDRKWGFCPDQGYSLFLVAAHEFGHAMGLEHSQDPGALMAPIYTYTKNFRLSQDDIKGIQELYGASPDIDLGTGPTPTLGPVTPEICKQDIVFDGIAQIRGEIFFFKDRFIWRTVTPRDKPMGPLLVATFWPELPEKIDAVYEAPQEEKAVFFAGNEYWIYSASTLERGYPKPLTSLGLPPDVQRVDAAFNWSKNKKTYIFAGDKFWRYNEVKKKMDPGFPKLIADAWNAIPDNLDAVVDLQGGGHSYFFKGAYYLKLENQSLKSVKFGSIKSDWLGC
Experimental: Determination of the Enzymatic Activity of the Catalytic Domain of Human Gelatinase-A (MMP-2)
as §1, with “0.5” for “1.5”, “0.83” for “1.67”
as §2
The enzymic reaction both in the case of reaction 1 and in the case of reaction 2 was followed after addition of 10 μl of a 3% strength (v/v) aqueous dimethyl sulfoxide solution which contained 0.3 mmol/l of the substrate by fluorescence spectroscopy (328 nm (extinction)/393 nm (emission)).
The enzymic activity has been presented as increase in extinction/minute.
The effect of the inhibitor was calculated as percentage inhibition by the following formula: % inhibition=100−[(increase in extinction/minute in reaction 2)/(increase in extinction/minute in reaction 1)×100].
as §3
as §4, with “[…]” for “1.67”, “0.3” for “0.075”

IC50 [1] | IC50 [2] | Compound
2.5 nM | 2.2 nM | O=C(NO)[C@H]1c2ccccc2CCN1S(=O)(=O)c1ccc(Oc2ccc(C(F)(F)F)cc2)cc1 [Compound 21, (R)-2-[4-(4-trifluoromethylphenoxy)benzenesulfonyl]-1,2,3,4-tetrahydro-isoquinoline-1-hydroxycarboxamide]
2 nM | 1 nM | COc1cc2c(cc1OC)[C@@H](C(=O)NO)N(S(=O)(=O)c1ccc(-c3ccc(Cl)cc3)cc1)CC2 [Compound 15]
130 nM | 25 nM | O=C(NO)[C@H]1c2ccccc2CCN1S(=O)(=O)c1ccc(Oc2ccc(OCC(F)(F)F)cc2)cc1 [Compound 22]
3 nM | 2 nM | (R)-4-(1-hydroxycarbamoyl-3,4-dihydro-1H-isoquinoline-2-sulfonyl)phenyl benzoate [Compound 48]
7.5 nM | 4.5 nM | COc1ccc(F)c2c1[C@H](C(=O)NO)N(S(=O)(=O)c1ccc(-c3ccc(Cl)cc3)cc1)CC2 [Compound 18]

Continued, compound first:

Compound | IC50 [1] | IC50 [2]
O=C(NO)[C@H]1c2ccccc2CCN1S(=O)(=O)c1ccc(Oc2ccncc2)cc1 [Compound 11] | 2.3 nM | 2.3 nM
O=C(NO)[C@H]1c2ccccc2CCN1S(=O)(=O)c1ccc(Oc2ccc(OC(F)(F)F)cc2)nc1 [Compound 43, (R)-2-[6-(4-trifluoromethoxyphenoxy)pyridine-3-sulfonyl]-1,2,3,4-tetrahydro-isoquinoline-1-hydroxycarboxamide] | 30 nM | 23 nM
O=C(NO)[C@H]1c2ccccc2CCN1S(=O)(=O)c1ccc(Oc2ccc(Cl)cc2)cc1 [Compound 9] | 2.1 nM | 2 nM
O=C(NO)[C@H]1c2ccccc2CCN1S(=O)(=O)c1ccc(Oc2ccc(Cl)cc2)nc1 [Compound 45, (R)-2-[6-(4-chlorophenoxy)pyridine-3-sulfonyl]-1,2,3,4-tetrahydroisoquinoline-1-hydroxycarboxamide] | 8 nM | 2 nM
2-{2-[4-(4-fluorophenoxy)phenyl]ethanesulfonyl}-1,2,3,4-tetrahydroisoquinoline-1-hydroxycarboxamide [Compound 20] | 2.2 nM | 2 nM
